Active and inactive are the calls of the source.
Columns and labels:
[1] = target: Dual specificity protein kinase CLK1 (Homo sapiens, UniProt P49759); test: CLK1 kinase inhibitors, off-target check, dose response, selectivity assay for Dyrk1A inhibitor project, biochemical, cherry-picked samples (AID 588811)
[2] = cytotoxicity toward NIH3T3 fibroblasts, dose response, counter-screen, cell-based, ATP luminescence, mouse fibroblasts (AID 2010); format: functional;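 note: cells exposed to compound for about 90 hours before reading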
[3] = inhibitors of intracellular T. cruzi replication, confirmation, NIH3T3 host cells, beta-gal luminescence (AID 2044); format: functional, cell-based;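 note: intracellular parasites grown in NIH/3T3 mouse fibroblasts as host cells; luminescent beta-galactosidase reporter signal from transgenic T. cruzi replicating inside host cells; inhibitors lower the luminescence signal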
[4] = target: Dual specificity tyrosine-phosphorylation-regulated kinase 1A (Rattus norvegicus, UniProt Q63470); format: biochemical, Homo sapiens
[5] = target: Troponin, cardiac muscle (Homo sapiens, UniProt P19429+P45379+P63316); test: Fluorescence-based biochemical high throughput dose response assay for activators of the calcium sensitivity of cardiac Regulated Thin Filaments (RTF). [Related pubchem assays (depositor defined):AID493008, AID493018, AID504382, AID504383]; format: protein-complex assay
[6] = target: T1, Zinc finger protein mex-5 (Caenorhabditis elegans, UniProt Q9XUB2); test: MEX-5/TCR-2 RNA interaction inhibitors, dose response, biochemical, C. elegans, fluorescence polarization (AID 1960)
T1 sequence (Q9XUB2 whole entry): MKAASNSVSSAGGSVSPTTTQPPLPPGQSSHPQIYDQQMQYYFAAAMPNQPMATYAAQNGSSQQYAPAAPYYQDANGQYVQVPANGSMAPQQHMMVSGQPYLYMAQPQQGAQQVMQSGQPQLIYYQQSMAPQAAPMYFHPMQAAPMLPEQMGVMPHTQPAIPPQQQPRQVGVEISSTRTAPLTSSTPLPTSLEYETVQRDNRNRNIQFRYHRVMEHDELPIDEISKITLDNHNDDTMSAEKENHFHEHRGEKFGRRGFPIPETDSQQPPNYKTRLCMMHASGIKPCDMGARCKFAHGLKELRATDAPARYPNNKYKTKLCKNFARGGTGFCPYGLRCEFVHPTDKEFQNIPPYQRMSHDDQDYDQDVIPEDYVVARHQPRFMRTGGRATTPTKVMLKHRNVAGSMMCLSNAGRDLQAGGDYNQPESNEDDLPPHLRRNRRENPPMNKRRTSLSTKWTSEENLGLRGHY

[7] = target: T2, RNA-binding protein pos-1 (Caenorhabditis elegans, UniProt G5EF15); test: inhibitors of POS-1/mex-3 RNA binding, dose response, biochemical, fluorescence polarization (AID 1964);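 note: purified POS-1 fused to maltose binding protein made in E. coli; potency of compounds blocking POS-1 binding to fluorescent RNA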
T2 sequence (G5EF15 whole entry): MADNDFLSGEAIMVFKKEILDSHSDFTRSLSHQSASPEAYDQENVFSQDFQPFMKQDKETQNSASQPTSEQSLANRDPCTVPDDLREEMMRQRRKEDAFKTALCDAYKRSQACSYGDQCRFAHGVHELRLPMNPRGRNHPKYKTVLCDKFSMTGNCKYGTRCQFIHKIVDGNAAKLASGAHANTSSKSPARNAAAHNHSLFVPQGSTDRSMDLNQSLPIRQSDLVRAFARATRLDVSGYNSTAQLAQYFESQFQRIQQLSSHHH

[8] = target: Glyceraldehyde-3-phosphate dehydrogenase (Homo sapiens, UniProt P04406)
[9] = target: T3, Alkaline phosphatase, tissue-nonspecific isozyme (Homo sapiens, UniProt P05186); test: human TNAP enzyme inhibitors, SAR follow-up, biochemical, luminescent, dose response (AID 1056)
T3 sequence (P05186 whole entry): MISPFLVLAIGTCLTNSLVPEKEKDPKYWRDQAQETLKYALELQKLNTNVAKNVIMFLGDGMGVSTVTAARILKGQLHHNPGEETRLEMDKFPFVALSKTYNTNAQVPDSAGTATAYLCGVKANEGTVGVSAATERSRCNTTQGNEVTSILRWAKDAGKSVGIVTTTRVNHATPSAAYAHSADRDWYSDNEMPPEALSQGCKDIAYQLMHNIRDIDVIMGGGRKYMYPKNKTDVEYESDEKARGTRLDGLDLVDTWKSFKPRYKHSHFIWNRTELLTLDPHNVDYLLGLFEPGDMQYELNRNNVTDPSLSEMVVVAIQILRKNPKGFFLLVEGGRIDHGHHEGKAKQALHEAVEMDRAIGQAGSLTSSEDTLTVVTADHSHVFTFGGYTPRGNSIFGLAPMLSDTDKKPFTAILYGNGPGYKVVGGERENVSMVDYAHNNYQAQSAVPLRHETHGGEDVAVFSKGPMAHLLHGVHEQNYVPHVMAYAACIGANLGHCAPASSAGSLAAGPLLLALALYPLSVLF

[10] = target: T4, Microphthalmia-associated transcription factor (Homo sapiens, UniProt O75030); test: TRPM1 promoter luciferase signal decrease, dose response, MITF inhibitor project, cell-based, SK-MEL-5, cherry-picked, set 3 (AID 493073); format: functional
T4 sequence (O75030 whole entry): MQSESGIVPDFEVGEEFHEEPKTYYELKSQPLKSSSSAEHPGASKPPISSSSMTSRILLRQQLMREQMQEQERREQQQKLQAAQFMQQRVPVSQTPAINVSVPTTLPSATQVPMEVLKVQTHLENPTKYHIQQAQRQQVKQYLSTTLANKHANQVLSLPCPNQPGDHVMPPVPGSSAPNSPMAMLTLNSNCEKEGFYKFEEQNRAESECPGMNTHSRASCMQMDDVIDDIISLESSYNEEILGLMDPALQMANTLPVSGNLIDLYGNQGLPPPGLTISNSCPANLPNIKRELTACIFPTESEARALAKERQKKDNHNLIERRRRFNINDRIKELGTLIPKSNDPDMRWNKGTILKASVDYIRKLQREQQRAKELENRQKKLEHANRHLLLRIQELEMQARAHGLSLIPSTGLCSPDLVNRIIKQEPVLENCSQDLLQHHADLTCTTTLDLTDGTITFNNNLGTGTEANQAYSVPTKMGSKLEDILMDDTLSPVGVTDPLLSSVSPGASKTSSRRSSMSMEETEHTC

[11] = system: A-375; test: A375 melanoma cell viability reduction, dose response, counter-screen for MITF modulator project, cherry-pick samples, set 2 (AID 540335); format: functional, cell-based; details: Homo sapiens
[12] = target: T5, Mannose-6-phosphate isomerase (Homo sapiens, UniProt P34949); test: human PMI inhibitors, high substrate, primary screen, biochemical, fluorescence intensity, high mannose 6-phosphate (AID 1220)
T5 sequence (P34949 whole entry): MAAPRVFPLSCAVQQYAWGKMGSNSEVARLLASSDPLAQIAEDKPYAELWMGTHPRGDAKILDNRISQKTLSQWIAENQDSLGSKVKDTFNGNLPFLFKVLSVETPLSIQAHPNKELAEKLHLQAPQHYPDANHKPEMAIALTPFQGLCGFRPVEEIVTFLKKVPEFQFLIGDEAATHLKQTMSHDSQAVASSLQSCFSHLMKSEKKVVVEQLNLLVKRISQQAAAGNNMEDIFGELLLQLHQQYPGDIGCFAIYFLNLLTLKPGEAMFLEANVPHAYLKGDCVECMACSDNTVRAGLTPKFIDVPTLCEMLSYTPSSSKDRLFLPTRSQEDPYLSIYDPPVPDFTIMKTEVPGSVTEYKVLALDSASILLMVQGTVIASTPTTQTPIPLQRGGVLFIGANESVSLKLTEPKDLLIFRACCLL

[13] = target: Tumor necrosis factor (Homo sapiens, UniProt P01375); test: TNFa-triggered NF-kB activation inhibitors, SAR follow-up, cell-based, revised (AID 2337); format: functional
[14] = target: Nucleotide-binding oligomerization domain-containing protein 2 (Homo sapiens, UniProt Q9HC29); test: PubChem AID 2334; format: functional
[15] = system: HEK293; test: cells; details: Homo sapiens;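 note: cells exposed to compound for 14 hours overnight before viability readout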
[16] = target: T6, Nucleotide-binding oligomerization domain-containing protein 1 (Homo sapiens, UniProt Q9Y239); test: NOD1 signaling inhibitors, SAR follow-up, revised (AID 2333); format: functional
T6 sequence (Q9Y239 whole entry): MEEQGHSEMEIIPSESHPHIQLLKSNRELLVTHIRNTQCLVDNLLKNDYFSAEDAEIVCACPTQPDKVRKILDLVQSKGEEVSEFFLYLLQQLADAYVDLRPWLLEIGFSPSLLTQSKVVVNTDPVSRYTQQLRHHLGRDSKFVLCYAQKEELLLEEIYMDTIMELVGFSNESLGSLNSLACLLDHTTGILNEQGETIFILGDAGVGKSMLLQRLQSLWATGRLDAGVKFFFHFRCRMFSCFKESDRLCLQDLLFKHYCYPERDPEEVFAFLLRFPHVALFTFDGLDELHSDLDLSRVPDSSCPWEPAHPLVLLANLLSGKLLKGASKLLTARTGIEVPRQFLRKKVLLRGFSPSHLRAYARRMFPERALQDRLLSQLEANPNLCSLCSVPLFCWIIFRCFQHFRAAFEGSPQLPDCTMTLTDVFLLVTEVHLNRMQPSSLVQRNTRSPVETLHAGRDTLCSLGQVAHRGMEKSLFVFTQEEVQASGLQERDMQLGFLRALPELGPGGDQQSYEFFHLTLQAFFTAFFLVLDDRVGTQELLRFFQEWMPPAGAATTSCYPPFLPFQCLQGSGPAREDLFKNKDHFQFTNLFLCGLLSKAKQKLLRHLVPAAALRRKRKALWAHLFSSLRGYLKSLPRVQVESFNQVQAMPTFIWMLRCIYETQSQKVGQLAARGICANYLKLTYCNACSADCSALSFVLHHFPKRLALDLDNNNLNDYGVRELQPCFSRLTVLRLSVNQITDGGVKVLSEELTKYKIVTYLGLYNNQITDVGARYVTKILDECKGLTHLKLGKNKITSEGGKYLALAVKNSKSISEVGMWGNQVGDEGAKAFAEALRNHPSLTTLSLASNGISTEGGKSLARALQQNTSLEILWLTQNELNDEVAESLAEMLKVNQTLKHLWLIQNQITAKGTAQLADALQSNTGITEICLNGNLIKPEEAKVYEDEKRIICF

[17] = HEp-2 cell cytotoxicity, dose response, cytotoxicity control for RSV inhibitor project, HTS (AID 2410); format: functional; details: human respiratory syncytial virus
[18] = system: Vero; test: cells; format: functional, cell-based; details: Chlorocebus sabaeus
[19] = system: Vero; test: cells; format: functional; details: Chlorocebus sabaeus
[20] = target: T7, X-box-binding protein 1 (Homo sapiens, UniProt P17861); format: functional, Cricetulus griseus;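 note: confirmatory dose-response counter-screen serving a CHOP assay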
T7 sequence (P17861 whole entry): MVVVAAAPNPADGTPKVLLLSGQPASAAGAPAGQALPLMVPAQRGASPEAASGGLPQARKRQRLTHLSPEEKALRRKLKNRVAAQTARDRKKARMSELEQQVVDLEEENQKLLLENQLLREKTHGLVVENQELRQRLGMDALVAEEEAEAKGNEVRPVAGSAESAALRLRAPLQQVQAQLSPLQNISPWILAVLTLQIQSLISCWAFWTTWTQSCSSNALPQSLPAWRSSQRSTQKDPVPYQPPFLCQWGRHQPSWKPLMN

[21] = target: DNA damage-inducible transcript 3 protein (Mus musculus, UniProt P35639); format: functional, Cricetulus griseus
[22] = system: H4; test: Luminescence Cell-Based Dose Response HTS to Identify Activators of 5'UTR Stem-Loop Driven Prion Protein mRNA Translation in H4 Neuroglioblastoma Cells. [Related pubchem assays: 1829 (Project Summary), 1814 (Primary HTS)]; format: functional; details: Homo sapiens
[23] = Luminescence Cell-Based Dose Response HTS to Identify Activators of Luciferase Translation or Activity in H4 […] Cells. [Related pubchem assays: 1829 (Project Summary), 1814 (Primary HTS)]; format: functional
[24] = system: HeLa; test: HeLa cell cytotoxicity, dose response, cytotoxicity control for MITF activator project, CellTiter-Glo luminescence, cherry-pick samples (AID 540259); format: functional, cell-based; details: Homo sapiens

SMILES: O=C(O)COc1ccc(/C=C/c2nc3ccc([N+](=O)[O-])cc3s2)cc1
- AC50 [1]: 0.4 µM (active)
- EC50 [2]: > 60 µM (not active)
- EC50 [3]: > 60 µM (not active)
- AC50 [4]: 0.348 µM (active)

SMILES: CN(C)CCN(C)Cc1c2ccccc2c(CN(C)CCN(C)C)c2ccccc12
- EC50 [5]: 34.3 µM (inactive)
- EC50 [6]: 10.2 µM (active)
- EC50 [7]: 12.1 µM (active)

SMILES: COc1ccc(Br)cc1S(=O)(=O)Nc1ccc2ncccc2c1
- IC50 [8]: > 100 µM (not active)
- IC50 [9]: > 100 µM (inactive)

SMILES: CCOc1c(Br)cc(CNC2CCCCCCC2)cc1OC
- AC50 [10]: 20.5 µM (active)
- AC50 [11]: 21.9 µM (active)

SMILES: COc1ccc(NC(S)=Nc2cccc3cnccc23)cc1
- IC50 [12]: > 50 µM (not active)
- AC50 [4]: 7.84 µM (active)

SMILES: c1csc(CCNc2ncnc3ccc(-c4ccc5c(c4)OCO5)cc23)c1
- AC50 [1]: < 0.00195 µM (active)

SMILES: O=C(NC1CCCc2c1cnn2-c1ccccc1F)c1ccnn1-c1ccccc1 (stereo not drawn)
- IC50 [13]: > 20 µM (inactive)
- IC50 [14]: > 20 µM (inactive)
- IC50 [15]: > 20 µM (inactive)
- IC50 [16]: > 20 µM (inactive)

SMILES: CC(C)c1cc(C(C)C)c(S(=O)(=O)Nc2cnc3ccccc3c2)c(C(C)C)c1
- IC50 [8]: > 100 µM (not active)
- IC50 [9]: > 100 µM (inactive)

SMILES: O=C(NC1CCCc2c1cnn2-c1ccccc1F)c1cc(-c2ccccc2)n[nH]1 (stereo not drawn)
- IC50 [13]: 10.7 µM (active)
- IC50 [14]: > 20 µM (inactive)
- IC50 [15]: > 20 µM (inactive)
- IC50 [16]: 16.9 µM (active)

SMILES: Cc1csc(NC(=O)Cc2coc3cc(C)c(C(C)C)cc23)n1
- CC50 [17]: 6.08 µM (active)
- IC50 [18]: 9.7 µM (active)
- CC50 [19]: 23 µM (active)

SMILES: c1cncc(CNc2ccnc(-c3ccc4[nH]ncc4c3)n2)c1
- AC50 [1]: 0.385 µM (active)

SMILES: CC(NC(=O)c1ccc([N+](=O)[O-])o1)C1CC2CCC1C2 (stereo not drawn)
- IC50 [18]: > 25 µM (active)
- CC50 [19]: 19.9 µM (active)

SMILES: Cc1n[nH]c(NC=C2C(=O)CC(c3ccco3)CC2=O)c1-c1ccc(Cl)cc1 (stereo not drawn)
- Absolute IC50 (XBP1) [20]: 10 µM
- Absolute IC50 (CHOP) [21]: 10 µM

SMILES: O=C(NCc1ccc(Cl)cc1)C1CCN(c2cnccn2)CC1
- EC50 [5]: > 71.4 µM (inactive)

SMILES: Cc1cc2c([nH]c3ccccc32)c2c1OC(C)(C)C=C2 [GRINIMIBINE]
- Absolute IC50 (XBP1) [20]: 10 µM
- EC50 [22]: 20.6 µM (active)
- Absolute IC50 (CHOP) [21]: 10 µM
- EC50 [23]: 27.7 µM (active)
- AC50 [24]: 41.3 µM (active)

— ChEMBL document CHEMBL1201862, “PubChem BioAssay data set” (2004)
